What was measured:
[1] = system: EL-4 tumours; assay: Treatment of large established EL-4 tumours with CAM gene transfer, DMXAA/FAA or timed combination; type: in vivo, C57BL/6 mice; conditions: large EL-4 tumours 0.6-0.8 cm; systemic (i.p.) optimal dose monotherapy; over a period of 3 weeks
Experimental: Female C57BL/6 mice, 6-9 weeks old, were obtained from the Animal Resource Unit, School of Medicine and Health Science, University of Auckland, Auckland. The EL-4 thymic lymphoma and mouse Lewis lung carcinoma cells (LLC) (H-2b) were purchased from the American Type Culture Collection (Rockville, Md). These cell lines were cultured in vitro at 37° C. in DMEM medium (Gibco BRL), supplemented with 10% foetal calf serum, 50 U/ml penicillin/streptomycin, 2 mM L-glutamine, 1 mM pyruvate.
Experimental Tumour Model.
Administration FAA and DMXAA Analogues. FAA was gifted from the Department of Health & Human Services, Drug Synthesis & Chemistry laboratory, National Cancer Institute, Bethesda, USA. The sodium salt of DMXAA was synthesized in the Auckland Cancer Society Research Centre, School of Medicine and Health Science, University of Auckland. Solutions of FAA and DMXAA in 5% (w/v) sodium bicarbonate and water, respectively, were prepared fresh for each experiment and protected from light. FAA and DMXAA were injected i.p. at 300 mg/Kg and 25 mg/Kg of body weight in a volume of 0.01 ml/g body weight, respectively.
Gene Transfer of B7.1. […]

[2] = system: EL-4 target cells; assay: Measurement of anti-tumour CTL activity of splenocytes from treated mice; type: cell-based; conditions: 21 days following gene transfer; combinations versus B7.1 monotherapy
Experimental: Measurement of the Generation of Anti-Tumour CTL. Splenocytes were harvested 21, and 42 days following initial gene transfer, and 22 days following a parental tumour challenge. They were incubated at 37° C. with EL-4 target cells in graded E:T ratios in 96-well round-bottom plates. After a 4-hour incubation, 50 μl of supernatant was collected, and lysis was measured using the Cyto Tox 96 Assay Kit (Promega, Madison, Wis., USA). Background controls for non-specific target and effector cell lysis were included. After background subtraction, percentage of cell lysis was calculated using the formula: 100×(experimental-spontaneous effector-target spontaneous target/maximum target-spontaneous target).

[3] = system: established EL-4 tumours; assay: Adoptive transfer of anti-tumour splenocytes from treated mice; type: in vivo; conditions: 2×10^8 splenocytes from treated mice; recipients with EL-4 tumours up to 0.8 cm
Experimental: Adoptive Transfer of Anti-Tumour CTL. Adoptive transfer of anti-tumour splenocytes was as described previously (Kanwar et al, 1999). Briefly, splenocytes obtained from mice 21 days following therapy were resuspended in Hank's balanced salt solution containing 1% FCS, and stimulated with 5 μg/ml PHA and 100 U/ml recombinant mouse IL-2 for 4 to 5 days. Animals bearing tumours 0.6 cm in diameter received both intratumoral and i.p. injections of 2×10^8 cultured splenocytes.

[4] = system: EL-4 tumour sections; assay: In situ detection of apoptotic and necrotic cells (TUNEL / propidium iodide); type: in vivo, mice; conditions: tumour sections 7, 14, 21 days after treatment; TUNEL and PI
Experimental: In Situ Detection of Apoptotic Cells. Tumours were excised and immediately frozen in dry ice, stored at −70° C., and serial sections of 6 μm thickness prepared. TUNEL staining was performed using an In Situ apoptosis detection kit from Boehringer Mannheim, Germany. Briefly, frozen sections were fixed with paraformaldehyde solution (4% in PBS, pH 7.4), and permeabilized with a solution containing 0.1% Triton X-100 and 0.1% sodium citrate. After washing they were incubated with 20 μl TUNEL reagent for 60 min at 37° C., and examined by fluorescence microscopy. Some slides were counterstained with propidium iodide (PI; Sigma, Calif., USA) to distinguish necrotic cells from those undergoing apoptosis. Adjacent sections were counterstained with haematoxylin and eosin and mounted. The total number of apoptotic or necrotic cells were counted. The apototic index (AI) or necrotic index (NI) was calculated as follows: AI or NI=number of apoptotic or necrotic cells×100/total number of nucleated cells.

[5] = system: heat shock protein 70; assay: Immunohistology of hsp70 expression in tumours; type: in vivo, mice; conditions: 7 days following administration
Experimental: Immunohistology. Tumours were excised on the seventh day following administration of therapeutic agents and controls, immediately frozen in dry ice, stored at −70° C. in isopentane, and sections of 10 μm thickness prepared. Sections were mounted on poly L-lysine-coated slides, and endogenous peroxidases blocked by incubating slides for 30 min in 0.3% H2O2 in methanol. Sections were stained with mouse anti-Hsp70 mAb (SPA-810 antibody; StressGen Biotechnologies Corp., Victoria, Canada) using a mouse-on-mouse immunodetection ABC Elite peroxidase kit (Vector Laboratories, Burlingame, Calif., USA). They were developed with SIGMA FAST DAB (3,3′-diaminobenzidine tetrahydrochloride) with metal enhancer CoCl2 tablets, and counterstained with haematoxylin and eosin. As a control, the primary antibody was substituted with rat IgG (Sigma, USA).

| Molecule | tumour diameter to which tumours shrank [1] | anti-tumour CTL activity of splenocytes [2] | anti-tumour effect of adoptively transferred splenocytes [3] | apoptotic versus necrotic tumour cells [4] | hsp70 expression in tumours [5] |
| --- | --- | --- | --- | --- | --- |
| Cc1ccc2c(=O)c3cccc(CC(=O)O)c3oc2c1C [DMXAA, 5,6-dimethylxanthenone-4-acetic acid] | 0.1-0.2 cm | very poor effectors | no detectable anti-tumour activity | predominance of necrotic cells | consistently found upregulated on tumour cells either surrounding or within the vicinity of blood vessels |
| flavone acetic acid [FAA] | 0.2-0.4 cm | very poor effectors | – | – | – |

— patent US20040086498A9, “Cancer therapy” (priority 1999, published 2004)
